Source: patent US20050009052A1 (priority 2003, published 2005)

Key:
pac10Δ/pac10Δ strain [1] = type: cell-based, Saccharomyces cerevisiae; settings: pac10Δ/pac10Δ grown individually, YPD, 30° C.; staurosporine 1 μM, caffeine 8 mM, latrunculin B 2 μg/ml
pde2Δ/pde2Δ strain [2] = assay: Differential Tag Length Analysis (DTLA) of 11-strain mixed yeast culture with inhibitor; type: cell-based, Saccharomyces cerevisiae; settings: 20 hours
Description: (§1) Strains, media and inhibitors.
(§2) Tag amplification and capillary electrophoresis. Oligonucleotides Fluor-1 (6-Fam-[…]) and Pho-1 (Phosphate-[…]) were used for the amplification of tag DNAs. PCR reactions were performed in 50 μl reaction volume containing the 2 primers at a final concentration of 1 μM each and 2.5 units of Stoffel fragment AmpliTaq DNA polymerase (Applied Biosystems, Foster City, Calif.). After an initial 2 min denaturing step at 94° C., the reactions underwent 30 amplification cycles (94° C., 30 sec; 60° C., 30 sec; 72° C., 30 sec with a 6 sec increase in extension time per cycle) followed by a post-amplification extension step (72° C., 10 min). As a template for the PCR reactions, 100 ng of plasmid DNA, 700 ng of genomic DNA (extracted from yeast strains using MasterPure Yeast DNA purification kit; Epicentre, Madison, Wis.), or an equivalent to 0.5 μl of saturated culture of yeast protoplasts (prepared by using lyticase) (see, e.g., Chen et al., Biotechniques 19:744-746 (1995)) was used. The PCR products were incubated with λ-exonuclease for 1 h at 37° C. and then purified using MinElute PCR purification kit (QIAGEN Inc., Valencia, Calif.). After 1 h digestion with EcoRI, the PCR products were again purified with the same kit and adjusted to 70% formamide and 1 mM EDTA and analyzed by capillary electrophoresis on ABI Prism 3700 DNA analyzer (Applied Biosystems, Foster City, Calif.) using 3700 POP-5 polymer.
(§3) Data analysis. To access the raw fluorescence data collected by ABI Prism 3700 DNA analyzer, a Visual Basic program was used that extracted the electropherogram values and converted them into a text file format. Peak quantitation was then performed using Caesar Workstation 5.0 (SciBridge Software, Los Angeles, Calif.). In the majority of cases, the relative representation of each tag in the PCR product was calculated by dividing the area under the corresponding tag peak by the sum of all tag peak areas. For the measurement of different input amounts of tag 42, the average peak area of the other 10 tags was first calculated. The area value of tag 42 was then divided by this averaged value to give normalized tag 42 area.

bro1Δ/bro1Δ strain [3] = assay: as above; type: cell-based, Saccharomyces cerevisiae; settings: 20 hours; for increase of strain representation in the mixture: staurosporine 1 μM, latrunculin B 2 μg/ml
Description: as §1, §2, §3

pdr5Δ/pdr5Δ strain [4] = assay: as above; type: cell-based, Saccharomyces cerevisiae; settings: pdr5Δ/pdr5Δ in mixed culture, 20 hours; latrunculin B 2 μg/ml
Description: as §1, §2, §3

act1Δ/ACT1 strain = assay: as above; type: cell-based, Saccharomyces cerevisiae; settings: 20 hours
Description: as §1, §2, §3

gim4Δ/gim4Δ strain [5] = assay: as above; type: cell-based, Saccharomyces cerevisiae
Description: as §1, §2, §3

pdr5Δ/pdr5Δ strain [6] = type: cell-based, Saccharomyces cerevisiae; settings: pdr5Δ/pdr5Δ grown individually, YPD, 30° C.; staurosporine 1 μM, latrunculin B 2 μg/ml
gim4Δ/gim4Δ strain [7] = type: cell-based, Saccharomyces cerevisiae; settings: gim4Δ/gim4Δ grown individually, YPD, 30° C.; staurosporine 1 μM, latrunculin B 2 μg/ml
pde2Δ/pde2Δ strain [8] = assay: Growth of individually cultured yeast strain with inhibitor (O.D.600); type: cell-based, Saccharomyces cerevisiae; settings: pde2Δ/pde2Δ grown individually, YPD, 30° C.; staurosporine 1 μM, latrunculin B 2 μg/ml
ACT1/act1Δ strain = type: cell-based, Saccharomyces cerevisiae; settings: ACT1/act1Δ grown individually, YPD, 30° C.; staurosporine 1 μM, latrunculin B 2 μg/ml
pac10Δ/pac10Δ strain [9] = type: cell-based, Saccharomyces cerevisiae; settings: pac10Δ/pac10Δ in mixed culture, 20 hours
rlm1Δ/rlm1Δ strain [10] = assay: Growth of individually cultured yeast strain with inhibitor (O.D.600); type: cell-based, Saccharomyces cerevisiae; settings: rlm1Δ/rlm1Δ grown individually, YPD, 30° C.; staurosporine 1 μM, caffeine 8 mM, tunicamycin 0.4 μg/ml
alg7Δ/ALG7 strain [11] = assay: Differential Tag Length Analysis (DTLA) of 11-strain mixed yeast culture with inhibitor; type: cell-based, Saccharomyces cerevisiae; settings: alg7Δ/ALG7 in mixed culture, 20 hours; tunicamycin 0.4 μg/ml
Description: as §1, §2, §3

rlm1Δ/rlm1Δ strain [12] = assay: as above; type: cell-based, Saccharomyces cerevisiae; settings: 20 hours
Description: as §1, §2, §3

alg7Δ/ALG7 strain [13] = type: cell-based, Saccharomyces cerevisiae; settings: alg7Δ/ALG7 grown individually, YPD, 30° C.; staurosporine 1 μM, tunicamycin 0.4 μg/ml
bro1Δ/bro1Δ strain [14] = settings: bro1Δ/bro1Δ grown individually, YPD, 30° C.; staurosporine 1 μM, caffeine 8 mM
pkc1Δ/PKC1 strain = assay: Differential Tag Length Analysis (DTLA) of 11-strain mixed yeast culture with inhibitor; type: cell-based, Saccharomyces cerevisiae; settings: 20 hours, caffeine 8 mM
Description: as §1, §2, §3

Molecule: C/C1=C/C(=O)O[C@@H]2C[C@@H](CC[C@H](C)/C=C\CC1)O[C@@](O)([C@@H]1CSC(=O)N1)C2 [latrunculin B]
- sensitivity of growth to inhibitor (pac10Δ/pac10Δ strain [1]): inhibited the growth
- strain representation compared with the non-treated culture (reduced to) (pde2Δ/pde2Δ strain [2]; pde2Δ/pde2Δ in mixed culture, latrunculin B 2 μg/ml): less than 50%
- increase of strain representation in the mixture (bro1Δ/bro1Δ strain [3]): 123%
- strain representation compared with the non-treated culture (reduced to) (pdr5Δ/pdr5Δ strain [4]): less than 50%
- strain representation compared with the non-treated culture (reduced to) (act1Δ/ACT1 strain; act1Δ/ACT1 in mixed culture, latrunculin B 2 μg/ml): less than 50%
- strain representation compared with the non-treated culture (reduced to) (gim4Δ/gim4Δ strain [5]; gim4Δ/gim4Δ in mixed culture, 20 hours, latrunculin B 2 μg/ml): less than 50%
- sensitivity of growth to inhibitor (pdr5Δ/pdr5Δ strain [6]): inhibited the growth
- sensitivity of growth to inhibitor (gim4Δ/gim4Δ strain [7]): inhibited the growth
- sensitivity of growth to inhibitor (pde2Δ/pde2Δ strain [8]): inhibited the growth
- sensitivity of growth to inhibitor (ACT1/act1Δ strain): inhibited the growth
- strain representation compared with the non-treated culture (reduced to) (pac10Δ/pac10Δ strain [9]; latrunculin B 2 μg/ml): less than 50%

Molecule: tunicamycin
- sensitivity of growth to inhibitor (rlm1Δ/rlm1Δ strain [10]): slowed the growth
- reduction of strain relative to the non-treated culture (alg7Δ/ALG7 strain [11]): 83%
- decrease/reduction of strain relative to the non-treated culture (rlm1Δ/rlm1Δ strain [12]; rlm1Δ/rlm1Δ in mixed culture, staurosporine 1 μM, tunicamycin 0.4 μg/ml): 59%
- sensitivity of growth to inhibitor (alg7Δ/ALG7 strain [13]): slowed the growth
- increase of strain representation in the mixture (pac10Δ/pac10Δ strain [9]; tunicamycin 0.4 μg/ml): 82%

Molecule: Cn1c(=O)c2c(ncn2C)n(C)c1=O [caffeine]
- sensitivity of growth to inhibitor (rlm1Δ/rlm1Δ strain [10]): sensitive
- sensitivity of growth to inhibitor (bro1Δ/bro1Δ strain [14]): sensitive
- sensitivity of growth to inhibitor (pac10Δ/pac10Δ strain [1]): sensitive
- effect on growth of strain in mixed culture (pde2Δ/pde2Δ strain [2]; caffeine 8 mM): decreased growth
- effect on growth of strain in mixed culture (bro1Δ/bro1Δ strain [3]; caffeine 8 mM): decreased growth
- effect on growth of strain in mixed culture (rlm1Δ/rlm1Δ strain [12]; caffeine 8 mM): decreased growth
- increase of strain representation in the mixture (pkc1Δ/PKC1 strain): 97%
- effect on growth of strain in mixed culture (act1Δ/ACT1 strain; caffeine 8 mM): decreased growth
- effect on growth of strain in mixed culture (gim4Δ/gim4Δ strain [5]; caffeine 8 mM): exhibited sensitivity in the mixture

Molecule: CN[C@@H]1C[C@H]2O[C@@](C)([C@@H]1OC)n1c3ccccc3c3c4c(c5c6ccccc6n2c5c31)C(=O)NC4 [staurosporine]
- increase of strain representation in the mixture (pde2Δ/pde2Δ strain [2]; staurosporine 1 μM): 200%
- increase of strain representation in the mixture (bro1Δ/bro1Δ strain [3]): 340%
